Measurements published in article PMC9598407, “Identification of Staphylococcus aureus Penicillin Binding Protein 4 (PBP4) Inhibitors” (Antibiotics, 2022).

Key:
S. aureus USA300 = assay: µSiM-CA membrane transmigration; type: cell-based, Staphylococcus aureus
Method: Thus, we tested 9314848 for its ability to eliminate S. aureus migration through µSiM-CA membrane pores. […] Conversely, the USA300∆pbp4 strain was unable to efficiently transverse the membrane, verifying that PBP4 is required for S. aureus membrane transmigration, as previously reported. To evaluate whether 9314848 is capable of eliminating PBP4-associated S. aureus µSiM-CA membrane migration, 1 × 10^7 CFU wild type cells were incubated with 0, 3.125, 6.25, 12.5, or 25 µM of the compound for 2 h then applied to the top chamber of the device. Following incubation, cells in the top and bottom chambers were enumerated.
The effect of PBP4 inhibitors on S. aureus migration through 500 nm nanoporous membranes modeling the orifices of osteocyte lacuno-canalicular networks was investigated using a µSiM-CA device, as previously described. Briefly, µSIM-CA systems were fabricated by SiMPore Inc. (West Henrietta, NY, USA) to include a top and a bottom chamber that were separated by 400 nm thick silicon nitride membrane containing an array of 500 nm pores, allowing for quantification of bacteria that migrate from the apical (top) well to the basal (bottom) well. To measure bacterial migration through the device membrane, S. aureus strains USA300 or USA300∆pbp4 were grown overnight at 37 °C with aeration, diluted (1:100) in fresh MH media, and then grown to mid-exponential phase (OD600nm = 0.2) in the presence or absence of putative PBP4 inhibitor for approximately 2 h at 37 °C shaking with aeration. A total of 100 µL of cell mixture (~1 × 10^7 CFU) was transferred into the top reservoir of the device and incubated for 6 h at 37 °C. A total of 10 µL of media from the apical and basal reservoirs was collected, serial diluted in 0.8% NaCl, and plated on MH agar plates for bacterial enumeration.

Pseudomonas aeruginosa = assay: Ceftobiprole susceptibility with compound, Pseudomonas aeruginosa; type: cell-based; conditions: not shown
Method: As a means to further evaluate whether the compound affects PBP4 activity a series of assays were performed.

recombinant PBP4 = recombinant PBP4 (Bacillus subtilis, UniProt P40750); assay: Gel electrophoresis BOCILLIN FL labeling of PBP4; type: binding
Method: A second, yet lower resolution, approach was used to verify the impact of 9314848 on PBP4 substrate binding in which the protein was preincubated with compound or control antibiotics then labeled with the BOCILLIN FL and resulting fluorescent labeled protein was visualized following gel electrophoresis.
The ability of putative PBP4 inhibitors to impact the active site of recombinant PBP4 was assessed using two previously established BOCILLIN-FL Penicillin (Penicillin V conjugated to BODIPY fluorescent dye) binding assays. First, fluorescence polarization assays were performed as previously described, but with minor modifications. Briefly, the indicated amount of the putative PBP4 inhibitor or control antibiotic was incubated with 1 µM recombinant B. subtilis PBP4 or S. aureus PBP2a in potassium phosphate buffer (40 mM K2HPO4 and 10 mM KH2PO4) for 1 h in black 96-well microtiter plates (Corning Life Sciences, Corning, NY, USA). Following incubation, 1 µM (final concentration) BOCILLIN FL penicillin was added, and the mixture was incubated for 30 min. BOCILLIN FL fluorescence polarization was measured at (495 nm excitation and 545 nm emission) in a SpectraMax M5 multimode plate reader (Molecular Devices, San Jose, CA, USA). All assays were repeated at least 8 times, averaged, and values falling outside of 2 standard deviations were considered outliers. The resulting data were plotted as percentage BOCILLIN FL binding inhibition = (T/U) × 100; T = FL polarization of ((PBP4+ BOCILLIN FL) − (PBP4+ BOCILLIN FL + inhibitor compound)), U = FL polarization of ((PBP4 + BOCILLIN FL) − (BOCILLIN FL)). Second, gel electrophoresis and fluorescence detection was used to measure BOCILLIN FL labeling of PBP4 treated with the known PBP4 inhibitor cefoxitin (positive control), kanamycin (negative control) or 9314848 (test compound), as previously described but with minor modifications. Briefly, 1 µM of recombinant PBP4 was mixed with 0, 50, 500, 2000, or 5000 µM 9314848 or control antibiotic in 50 mM phosphate buffer (pH 7.4) and incubated at 37 °C for 30 min. Next 40 μM of BOCILLIN FL was added to the reaction mixture and incubated for an additional 30 min at 37 °C. Reactions were stopped by adding 5× SDS-PAGE gel loading dye, heated at 100 °C for 3 min and separated by electrophoresis in 12% SDS-PAGE (2 h, 120 Volts). BOCILLIN FL labeled PBP4 was imaged at λ = 365 nm using a BioRad Gel Doc EZ Imaging system and the gel was then subsequently stained with Bio-safe Coomassie Brilliant Blue stain (BioRad, Hercules, CA, USA) to measure the amount of protein present in each reaction condition and analyzed using NIH-ImageJ software. The percent BOCILLIN FL binding was calculated by first normalizing the protein present in each reaction condition to that of untreated control and subsequently applying each reaction’s protein normalization factor to each reaction’s fluorescent signal. The percentage BOCILLIN FL binding inhibition was then calculated as the normalized band intensity of antibiotic/compound treated sample as compared to the control sample (PBP4 + BOCILLIN FL in the absence of compound).

Sequence of recombinant PBP4 (P40750 22-624): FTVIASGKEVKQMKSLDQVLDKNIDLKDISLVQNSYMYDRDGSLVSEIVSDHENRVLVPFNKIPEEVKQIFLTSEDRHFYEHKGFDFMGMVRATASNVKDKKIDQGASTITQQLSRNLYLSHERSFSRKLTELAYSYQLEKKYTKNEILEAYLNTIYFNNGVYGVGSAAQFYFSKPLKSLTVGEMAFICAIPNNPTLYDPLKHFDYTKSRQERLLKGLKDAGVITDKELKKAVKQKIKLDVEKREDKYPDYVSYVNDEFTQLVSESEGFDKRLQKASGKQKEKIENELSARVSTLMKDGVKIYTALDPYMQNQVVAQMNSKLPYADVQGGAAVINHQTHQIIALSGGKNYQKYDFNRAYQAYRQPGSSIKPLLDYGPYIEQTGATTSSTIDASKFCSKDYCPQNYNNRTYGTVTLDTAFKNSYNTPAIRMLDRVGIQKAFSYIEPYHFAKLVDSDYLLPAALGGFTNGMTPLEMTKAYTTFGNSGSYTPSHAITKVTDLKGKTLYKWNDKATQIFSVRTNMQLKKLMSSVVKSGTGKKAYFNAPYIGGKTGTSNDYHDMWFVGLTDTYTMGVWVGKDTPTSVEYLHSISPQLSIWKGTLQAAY

CC1CCN(C(=O)c2cccc(NC(=O)Nc3ccc(Cl)cc3)c2)CC1 [Compound 9314848]
Viability of cells within the top/treatment chamber (S. aureus USA300; 0-25 µM compound): did not affect the viability | Effect on S. aureus membrane transmigration (S. aureus USA300; concentrations greater than 6.25 µM (2.5 µg/mL)): completely inhibited | Effect on S. aureus membrane transmigration (S. aureus USA300; ≤3.125 µM): no effect | Effect on ceftobiprole susceptibility (Pseudomonas aeruginosa): no effect | inhibition at 50 µM (recombinant PBP4; 50 µM compound, read-out: PBP4 BOCILLIN FL binding inhibition (gel-based)): 37.5 ± 8.2% | inhibition at 5000 µM (recombinant PBP4; 5000 µM compound, read-out: PBP4 BOCILLIN FL binding inhibition (gel-based)): 72.1 ± 13.1% | PBP4 BOCILLIN FL binding inhibition (gel-based) at low concentration (recombinant PBP4; concentrations below 50 µM): did not reproducibly demonstrate BOCILLIN FL binding inhibition
